Experimental data as given in US20240228486A1, “SULFONE- AND SULFOXIMINE-BASED SELECTIVE PARP1 INHIBITORS” (Enliven Inc., priority 2022, published 2024).

Tests used:
[1] = test system: PARylation level in MDA-MB-436; assay: PARPylation MSD Assay on MDA-MB-436; format: cell-based; settings: Homo sapiens; MDA-MB-436 cells, 4 hours incubation with compound, electrochemiluminescent (MSD) detection of PARylation
Description: Compounds were dissolved and 4-fold serially diluted in DMSO.
Plates were incubated for 1 hour at room temperature, with shaking. […] Plates were incubated for 1 hour at room temperature, with shaking.

PARP2 = PARP2 (Homo sapiens (Human), UniProt Q9UGN5); assay: PARP2 FP Assay; format: binding; settings: PARP2 fluorescence polarization probe assay, 4 hours at room temperature
PARP1 = PARP1 (Homo sapiens (Human), UniProt P09874); assay: PARP1 FP Assay; format: binding; settings: PARP1 fluorescence polarization probe assay, 4 hours at room temperature
Description: Compounds were dissolved and 4-fold serially diluted in DMSO. Compounds were transferred by an Echo to the assay plate to reach final concentrations ranging from 10 μM to 0.01 nM.
Assay buffer was composed of 50 mM Tris pH 8.0, 10 mM MgCl2, 150 mM NaCl and 0.001% Triton X100.

Chain of PARP1 (P09874 whole entry): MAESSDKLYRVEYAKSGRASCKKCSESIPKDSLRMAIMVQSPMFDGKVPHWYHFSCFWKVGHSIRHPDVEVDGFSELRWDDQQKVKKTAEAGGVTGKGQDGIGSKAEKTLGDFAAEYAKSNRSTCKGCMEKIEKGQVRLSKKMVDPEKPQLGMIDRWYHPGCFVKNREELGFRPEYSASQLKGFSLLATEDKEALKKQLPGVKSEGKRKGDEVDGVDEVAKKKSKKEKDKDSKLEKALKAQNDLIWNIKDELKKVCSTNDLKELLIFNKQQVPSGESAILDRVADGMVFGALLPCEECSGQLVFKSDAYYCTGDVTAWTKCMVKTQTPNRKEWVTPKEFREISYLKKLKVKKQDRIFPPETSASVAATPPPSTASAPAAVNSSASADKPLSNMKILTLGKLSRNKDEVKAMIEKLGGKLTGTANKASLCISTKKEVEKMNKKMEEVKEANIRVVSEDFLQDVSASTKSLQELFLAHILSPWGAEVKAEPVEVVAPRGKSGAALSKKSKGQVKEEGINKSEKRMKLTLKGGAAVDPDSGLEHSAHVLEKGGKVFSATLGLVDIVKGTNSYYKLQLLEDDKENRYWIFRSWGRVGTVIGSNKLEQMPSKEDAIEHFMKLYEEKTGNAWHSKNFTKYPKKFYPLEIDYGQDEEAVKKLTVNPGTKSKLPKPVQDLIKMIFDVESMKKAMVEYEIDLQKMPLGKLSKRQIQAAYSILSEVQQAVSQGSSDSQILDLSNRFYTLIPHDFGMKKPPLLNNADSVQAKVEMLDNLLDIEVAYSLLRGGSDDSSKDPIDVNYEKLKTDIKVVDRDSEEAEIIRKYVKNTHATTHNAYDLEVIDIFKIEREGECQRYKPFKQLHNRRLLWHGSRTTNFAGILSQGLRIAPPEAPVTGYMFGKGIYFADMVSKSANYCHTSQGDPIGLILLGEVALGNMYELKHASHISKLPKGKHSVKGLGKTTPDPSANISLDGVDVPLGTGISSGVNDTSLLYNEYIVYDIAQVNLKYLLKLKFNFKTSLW
Chain of PARP2 (Q9UGN5 whole entry): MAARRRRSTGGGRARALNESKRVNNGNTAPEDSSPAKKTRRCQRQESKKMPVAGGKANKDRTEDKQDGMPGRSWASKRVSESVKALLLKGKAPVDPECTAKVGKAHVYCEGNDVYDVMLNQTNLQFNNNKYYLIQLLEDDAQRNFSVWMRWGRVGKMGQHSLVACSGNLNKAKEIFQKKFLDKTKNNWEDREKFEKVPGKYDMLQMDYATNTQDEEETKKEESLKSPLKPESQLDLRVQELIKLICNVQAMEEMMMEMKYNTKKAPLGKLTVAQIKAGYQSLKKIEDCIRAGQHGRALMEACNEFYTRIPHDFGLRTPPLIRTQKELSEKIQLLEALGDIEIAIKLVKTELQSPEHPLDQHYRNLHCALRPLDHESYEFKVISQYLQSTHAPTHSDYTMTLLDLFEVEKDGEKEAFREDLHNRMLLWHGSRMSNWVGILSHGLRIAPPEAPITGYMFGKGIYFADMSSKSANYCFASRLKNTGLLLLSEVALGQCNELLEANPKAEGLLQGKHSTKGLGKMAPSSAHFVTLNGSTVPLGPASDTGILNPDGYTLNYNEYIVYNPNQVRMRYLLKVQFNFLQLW

CCc1cc2ncc([S@](=N)(=O)C3CCN(c4ccc(C(=O)NC)nc4)CC3)cc2[nH]c1=O (single isomer, unassigned) [Compound 2.7]
IC50 [1]: 10.8 nM | IC50 (PARP2): > 10000 nM | IC50 (PARP1): 6.89 nM

CCc1cc2ncc(S(=O)(=O)N3CCN(c4ccc(F)cc4F)CC3)cc2[nH]c1=O [Compound 2.6, 7-((4-(2,4-difluorophenyl)piperazin-1-yl)sulfonyl)-3-ethyl-1,5-naphthyridin-2(1H)-one]
IC50 [1]: > 1000 nM | IC50 (PARP2): > 10000 nM | IC50 (PARP1): > 10000 nM

CCc1cc2ncc([S@@](=N)(=O)C3CCN(c4ccc(C(=O)NC)nc4)CC3)cc2[nH]c1=O (single isomer, unassigned) [Compound 2.8]
IC50 [1]: 0.515 nM | IC50 (PARP2): > 10000 nM | IC50 (PARP1): 8.66 nM
